The record followed here is US20240218016A1, “PEPTIDES AND THEIR USE IN THE TREATMENT OF INFLAMMATION” (Shenzhen Institutes of Advanced Technology, priority 2019, published 2024).

Where no end group is shown, it is not given here. [ ]: non-standard residue; d: D form. The star is where a group is joined. Dihydrocaffeoyl = O=C(CCc1ccc(O)c(O)c1)*; Dopa = N[C@@H](Cc1ccc(O)c(O)c1)C(=O)O; Hyp = O=C(O)[C@@H]1C[C@@H](O)CN1

The experiment deals with xylene-induced ear swelling. The experiment in a line: Mouse ear swelling model (xylene-induced). It counts as in vivo, BALB/c mice. The conditions noted are these: for Swelling rate: (right ear weight - left ear weight)/left ear weight x 100, about 0.1 g gel (peptide 0.5 mg/g) or Dex cream on right ear 1 hour before 20 μL xylene, ears taken 40 minutes after xylene, 5 mice per group; for anti-inflammatory effects compared with the other peptides tested: xylene mouse ear swelling, topical gels 0.5 mg/g. How it is done: 35 Health male BALB/c mice with 6-8 weeks old and average body weight of 18-25 g were supplied from Changzhou Cvens Experimental Animal Co., Ltd. and housed and cared for about 1 week prior to the experiment. The housing temperature was around 25 to 27 ° C. with 74% humidity, alternating 12-hour periods of light and darkness, and free access to food and water. The mice were randomly divided into 7 groups as described in Table 5 below, with 5 mice in each group. [table] Dexamethasone acetate cream (Dex cream; 5 mg/10 g (which means that there was 5 mg Dex contained in 10 g of the cream), Fuyuan Pharmaceutical Co. Ltd., Anhui, China) was used as positive control. The left ear of each mouse was used as an autologous control. The right ear of each mouse was treated with the above compounds in the stated concentrations. About 0.1 g of the various gels, and Dex cream were applied to the right ear of mice in each group, both inside and outside. The blank gel base was applied on the ears in the model groups. After 1 hour, 20 μL of xylene (Shanghai Aladdin Bio-Chem Technology Co., Ltd.) was applied to the same ear of each mouse. The mice were sacrificed by cervical dislocation 40 minutes after xylene application. The left and right ears were cut off. An EMS skin biopsy punch with a diameter of 8 mm was used to take a piece of the ear from the same site on both ears. The weights were recorded, and the swelling rate was calculated as a percentage according to the following formula: (right ear weight−left ear weight)/left ear weight×100

“58 (KAKPS[Dopa][Hyp][Hyp]T-dopamine) [compound 58]”: the Swelling rate was 43% and the “anti-inflammatory effects compared with the other peptides tested” value is “stronger than the other peptide compounds tested”.

Take “22 (Dihydrocaffeoyl-KPS[Dopa][Hyp]TA[Hyp]K) [compound 22]”: the Swelling rate is 40% and the “anti-inflammatory effects compared with the other peptides tested” value is given as “stronger than the other peptide compounds tested”.

The substance “15 (Dihydrocaffeoyl-AKPS[Dopa][Hyp]T[Dopa][Hyp]K) [compound 15]” returned a Swelling rate of 63%.

The substance “18 (Dihydrocaffeoyl-AKPS[Dopa][Hyp][Hyp]T[Dopa]K) [compound 18]” displayed a Swelling rate of 57%.
